This passage reports IC50 results from patent publication US20250154163A1, “Pyrimidinone-Containing 17-Beta-Hydroxysteroid Dehydrogenase Type 13 Inhibitors” (ENANTA PHARMACEUTICALS, INC., priority 2023, published 2025).

Broadly, the IC50 is the midpoint of a concentration-inhibition curve.

In experiment [1] the target is T1, Recombinant human 17β-HSD13 (Homo sapiens, UniProt Q7Z5P4).
T1 construct: host or cells: Sf9 insect cells
T1 sequence (Q7Z5P4 20-300): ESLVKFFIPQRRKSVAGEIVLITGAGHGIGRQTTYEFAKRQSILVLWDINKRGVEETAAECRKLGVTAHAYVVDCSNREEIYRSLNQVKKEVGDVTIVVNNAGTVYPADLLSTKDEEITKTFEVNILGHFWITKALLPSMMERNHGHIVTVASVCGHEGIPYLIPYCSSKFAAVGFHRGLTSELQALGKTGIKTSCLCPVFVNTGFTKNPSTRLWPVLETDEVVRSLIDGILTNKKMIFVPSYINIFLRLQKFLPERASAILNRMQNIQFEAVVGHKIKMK
Briefly: 17β-HSD13 rapid-fire mass spectrometry assay (RF/MS assay). The format is biochemical. The conditions noted are these: inhibition of 17β-HSD13, RF/MS assay; HSD17B13 80 nM, LTB4 10 μM, NAD+ 0.5 mM, RT 3 h. An excerpt:
17(3-HSD13 rapid-fire mass spectrometry assay (RF/MS assay). Recombinant human 17β-HSD13 was expressed and purified from sf9 cells at Charles River Labs (Saffron Walden, UK). Leukotriene B4 (Catalog #71160-24-2) and 12-oxoleukotriene B4 (Catalog #20140) were purchased from Cayman Chemicals (Ann Arbor, MI). NAD+ (Catalog #N8285), BSA (Catalog #A7030), DMSO (Catalog #D2650), and Tween-20 (Catalog #11332465001) were purchased from Sigma (St. Louis, MO). Formic acid (Catalog #28905) was from ThermoFisher Scientific and 384 deep well PP microplates (Catalog #784261) were from Greiner Bio-One. In a typical IC50 assay performed in a 384w PP microplate, test compounds (0-100 μM) were incubated with HSD17B13 (80 nM), LTB4 (10 μM), and NAD^+ (0.5 mM) in 10 μL assay buffer (20 mM Tris (pH 7.5), BSA (0.005%), and Tween-20 (0.01%)) at RT for 3 h. The assays were quenched by adding 20 μL of 0.15% aqueous formic acid and the plates were frozen at −80° C. RF/MS analysis was performed at PureHoney Technologies (Billerica, MA) on a RapidFire RF300 system (Agilent Technologies, Inc.) coupled to an API 4000 triple quadrupole mass spectrometer (Sciex) equipped with Agilent RapidFire cartridge type A (C4). The mobile phase was 0.09% formic acid and 0.01% trifluoracetic acid in water (Buffer A) and 0.09% formic acid and 0.01% trifluoracetic acid in 80% aqueous acetonitrile (Buffer B). The RapidFire method conditions were the following: 250 ms aspirate, 3000 ms load/desalt, 4000 ms elute, and 500 ms re-equilibrate. RF-MS/MS was performed in negative polarity (−4500 V), the source temperature was 650° C., and gas 1 and gas 2 settings for nitrogen were set to 50. The curtain gas and collision gas were also nitrogen and were set to 20 and 12, respectively. Leukotriene B4 (335.3) and 12-oxoLeukotriene B4 (333.3) SRM transitions were optimized with Discovery Quant software and extracted ion counts for these analytes were determined.
Data Analysis. 17β-HSD13 enzyme activity was measured as percent conversion of extracted ion counts and normalized to high and low controls to determine percent residual activity at various concentrations of test compounds. Data was fitted to normalized activity (variable slope) versus concentration fit in GraphPad Prism 7 to determine IC50. All experiments were run in duplicates.
By using the above method, the inhibition of 17β-HSD13 was evaluated for the compounds of Formula (I). IC50 ranges are as follows: A is <0.1 μM; B is 0.1 μM-1.0 μM; C is 1.0 μM-10 μm; and D is >10 μM.

Experiment [2] addresses T2, human HSD17β13 (stable HEK293T cell line overexpressing human HSD17β13) (Homo sapiens, UniProt Q7Z5P4).
T2 construct: expressed in transfected cells
T2 sequence (Q7Z5P4 20-300): T1 sequence (Q7Z5P4 20-300)
The experiment can be described thus: HSD17β13 inhibitor cell-based screening assay (conversion of estradiol-d2 to estrone-d2 by RF-MS). Conditions: conversion of estradiol-d2 to estrone-d2 after 24 hours. An outline of the steps: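 Cellular IC50 is based on 24-h conversion of estradiol-d2 (5 μM final) to estrone-d2, measured by RF-MS in acetonitrile-precipitated supernatants. Assay uses human HSD17β13-overexpressing HEK293T cells (7.5E3/well, 1% charcoal/dextran FBS MEM), with compounds dosed as a 9-point 1:3 series to 10 μM final. ATPlite luminescence on overexpressing and parent lines measured viability.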

In the case of `COC(=O)c1cccc2c1sc1nc(-c3ccc(OC)cc3C3CC3)n(Cc3cnco3)c(=O)c12` [Example 1, methyl 2-(2-cyclopropyl-4-methoxyphenyl)-3-(oxazol-5-ylmethyl)-4-oxo-3,4-dihydrobenzo[4,5]thieno[2,3-d]pyrimidine-8-carboxylate], the IC50 was above 10 µM in experiment [1] and 1000 to 100000 nM in experiment [2]. The corresponding values for `COc1ccc(-c2nc3sc4c(C(=O)O)cccc4c3c(=O)n2Cc2cnco2)c(C2CC2)c1` [Example 2, 2-(2-cyclopropyl-4-methoxyphenyl)-3-(oxazol-5-ylmethyl)-4-oxo-3,4-dihydrobenzo[4,5]thieno[2,3-d]pyrimidine-8-carboxylic acid] are 0.1 to 1 µM and 1000 to 100000 nM. With `COc1ccc(-c2nc3sc4c(C(N)=O)cccc4c3c(=O)n2Cc2cnco2)c(C2CC2)c1` [Example 3, 2-(2-cyclopropyl-4-methoxyphenyl)-3-(oxazol-5-ylmethyl)-4-oxo-3,4-dihydrobenzo[4,5]thieno[2,3-d]pyrimidine-8-carboxamide], the concentration for half-maximal inhibition (IC50) was 1 to 10 µM in experiment [1] and 1000 to 100000 nM in experiment [2]. With `COc1ccc(-c2nc3sc4c(NC(C)=O)cccc4c3c(=O)n2Cc2cnco2)c(C2CC2)c1` [Example 4, N-(2-(2-cyclopropyl-4-methoxyphenyl)-3-(oxazol-5-ylmethyl)-4-oxo-3,4-dihydrobenzo[4,5]thieno[2,3-d]pyrimidin-8-yl)acetamide], the IC50 in experiment [1] is above 10 µM; in experiment [2] it was 1000 to 100000 nM.

With `COc1ccc(-c2nc3sc4c(N(C(C)=O)C(C)=O)cccc4c3c(=O)n2Cc2cnco2)c(C2CC2)c1` [Example 5, N-acetyl-N-(2-(2-cyclopropyl-4-methoxyphenyl)-3-(oxazol-5-ylmethyl)-4-oxo-3,4-dihydrobenzo[4,5]thieno[2,3-d]pyrimidin-8-yl)acetamide], the figures for the IC50 in experiment [1] and in experiment [2] were above 10 µM and 1000 to 100000 nM, respectively. In the same order, the values of `COc1ccc(-c2nc3sc4c(N)cccc4c3c(=O)n2Cc2cnco2)c(C2CC2)c1` [Example 6, 8-amino-2-(2-cyclopropyl-4-methoxyphenyl)-3-(oxazol-5-ylmethyl)benzo[4,5]thieno[2,3-d]pyrimidin-4(3H)-one] are above 10 µM and 1000 to 100000 nM. In the same order, the values of `COc1ccc(-c2nc3sc4c(NS(C)(=O)=O)cccc4c3c(=O)n2Cc2cnco2)c(C2CC2)c1` [Example 7, N-(2-(2-cyclopropyl-4-methoxyphenyl)-3-(oxazol-5-ylmethyl)-4-oxo-3,4-dihydrobenzo[4,5]thieno[2,3-d]pyrimidin-8-yl)methanesulfonamide] are above 10 µM and 1000 to 100000 nM. As to `COc1ccc(-c2nc3sc4c(OC)cccc4c3c(=O)n2Cc2cnco2)c(C2CC2)c1` [Example 8, 2-(2-cyclopropyl-4-methoxyphenyl)-8-methoxy-3-(oxazol-5-ylmethyl)benzo[4,5]thieno[2,3-d]pyrimidin-4(3H)-one], the half-inhibitory concentration (IC50) in experiment [1] is above 10 µM; in experiment [2] it was 1000 to 100000 nM. The corresponding values for `COc1ccc(-c2nc3sc4c(-c5ncco5)cccc4c3c(=O)n2Cc2cnco2)c(C2CC2)c1` [Example 9, 2-(2-cyclopropyl-4-methoxyphenyl)-8-(oxazol-2-yl)-3-(oxazol-5-ylmethyl)benzo[4,5]thieno[2,3-d]pyrimidin-4(3H)-one] are above 10 µM and 1000 to 100000 nM. Turning to `CCCCc1cccc2c1sc1nc(-c3ccc(OC)cc3C3CC3)n(Cc3cnco3)c(=O)c12` [Example 10, 8-butyl-2-(2-cyclopropyl-4-methoxyphenyl)-3-(oxazol-5-ylmethyl)benzo[4,5]thieno[2,3-d]pyrimidin-4(3H)-one], the IC50 in experiment [1] was above 10 µM; in experiment [2], 100 to 500 nM. As to `COc1ccc(-c2nc3sc4c(B(O)O)cccc4c3c(=O)n2Cc2cnco2)c(C2CC2)c1` [Example 11, (2-(2-cyclopropyl-4-methoxyphenyl)-3-(oxazol-5-ylmethyl)-4-oxo-3,4-dihydrobenzo[4,5]thieno[2,3-d]pyrimidin-8-yl)boronic acid], the figures for the half-maximal inhibitory concentration (IC50) in experiment [1] and in experiment [2] were 0.1 to 1 µM and 500 to 1000 nM, respectively. The corresponding values for `COc1ccc(-c2nc3sc4c(F)cccc4c3c(=O)n2Cc2cnco2)c(C2CC2)c1` [Example 13, 2-(2-cyclopropyl-4-methoxyphenyl)-8-fluoro-3-(oxazol-5-ylmethyl)benzo[4,5]thieno[2,3-d]pyrimidin-4(3H)-one] are above 10 µM and 1000 to 100000 nM.

On to `C=Cc1cccc2c1sc1nc(-c3ccc(OC)cc3C3CC3)n(Cc3cnco3)c(=O)c12` [Example 14, 2-(2-cyclopropyl-4-methoxyphenyl)-3-(oxazol-5-ylmethyl)-8-vinylbenzo[4,5]thieno[2,3-d]pyrimidin-4(3H)-one], for which the IC50 in experiment [1] was above 10 µM; in experiment [2], 1000 to 100000 nM. In the same order, the values of `COc1ccc(-c2nc3sc4c(C=O)cccc4c3c(=O)n2Cc2cnco2)c(C2CC2)c1` [Example 15, 2-(2-cyclopropyl-4-methoxyphenyl)-3-(oxazol-5-ylmethyl)-4-oxo-3,4-dihydrobenzo[4,5]thieno[2,3-d]pyrimidine-8-carbaldehyde] are above 10 µM and 1000 to 100000 nM.

Consider `COc1ccc(-c2nc3sc4c(C(F)F)cccc4c3c(=O)n2Cc2cnco2)c(C2CC2)c1` [Example 16, 2-(2-cyclopropyl-4-methoxyphenyl)-8-(difluoromethyl)-3-(oxazol-5-ylmethyl)benzo[4,5]thieno[2,3-d]pyrimidin-4(3H)-one], for which the values for the IC50 in experiment [1] and in experiment [2] were above 10 µM and 1000 to 100000 nM, respectively. The corresponding values for `COc1ccc(-c2nc3sc4c(O[C@@H]5O[C@H](C(=O)O)[C@@H](O)[C@H](O)[C@H]5O)cccc4c3c(=O)n2Cc2cnco2)c(C2CC2)c1` [Example 17, (2S,3S,4S,5R,6S)-6-((2-(2-cyclopropyl-4-methoxyphenyl)-3-(oxazol-5-ylmethyl)-4-oxo-3,4-dihydrobenzo[4,5]thieno[2,3-d]pyrimidin-8-yl)oxy)-3,4,5-trihydroxytetrahydro-2H-pyran-2-carboxylic acid] are 1 to 10 µM and 1000 to 100000 nM. In experiment [2], `COc1ccc(-c2nc3sc4c(O)c(Cl)cc(F)c4c3c(=O)n2Cc2cnco2)c(C2CC2)c1` [Example 218, 7-chloro-2-(2-cyclopropyl-4-methoxyphenyl)-5-fluoro-8-hydroxy-3-(oxazol-5-ylmethyl)benzo[4,5]thieno[2,3-d]pyrimidin-4(3H)-one] registered an IC50 below 100 nM. On the same count and under the same terms, the same measure for `O=c1c2c(nc(-c3cc(F)c(F)cc3C3CC3)n1Cc1cc(C(F)(F)F)no1)sc1c(O)c(Cl)cc(F)c12` [Example 219, 7-chloro-2-(2-cyclopropyl-4,5-difluorophenyl)-5-fluoro-8-hydroxy-3-((3-(trifluoromethyl)isoxazol-5-yl)methyl)benzo[4,5]thieno[2,3-d]pyrimidin-4(3H)-one]: below 100 nM.

In the case of `COc1ccc(-c2nc3sc4c(O)c(Cl)cc(C)c4c3c(=O)n2Cc2cnco2)c(C2CC2)c1` [Example 221], the IC50 in experiment [2] was 100 to 500 nM.

Take `COc1ccc(-c2nc3sc4c(O)c(Cl)cc(Br)c4c3c(=O)n2Cc2cnco2)c(C2CC2)c1` [Example 222]: in experiment [2], the half-inhibitory concentration (IC50) lay in the range of 100 to 500 nM. Same read-out and setting: the same measure for `COc1ccc(-c2nc3sc4c(O)c(F)cc(F)c4c3c(=O)n2Cc2cnco2)c(C2CC2)c1` [Example 223, 2-(2-cyclopropyl-4-methoxyphenyl)-5,7-difluoro-8-hydroxy-3-(oxazol-5-ylmethyl)benzo[4,5]thieno[2,3-d]pyrimidin-4(3H)-one]: below 100 nM.
